Patent EP4775582A1, “MACROCYCLIC COMPOUND AND ANTIBODY-DRUG CONJUGATE THEREOF” (Genfleet Therapeutics (Shanghai) Inc., priority 2023, dated 2025)
Read-outs that look alike come from different tables or passages of the source.

Assays:
Format in all cases: cell-based, human
NCI-H441 cells = experiment: 3D cell proliferation assay (CellTiter Glo-3D), NCI-H441; conditions: NCI-H441 cells (KRAS G12V), 2% FBS, 5 days, read-out: H441 AP IC50
Description: (§1) The cells were digested with trypsin (containing EDTA), collected in their respective low-serum complete media containing 2% FBS (for MIA Paca-2 cell culture: DMEM + 2% FBS + 0.5% Horse serum + 1% PS), and counted. After the cell density was adjusted as required, 200 MIA PaCa-2 cells, 800 AsPC-1 cells, 800 NCI-H441 cells, or 400 NCI-H1975 cells per well were seeded into a 384-well cell culture plate, with the volume of the medium in each well being 45 µL. The cell culture plate was incubated in an incubator at 37 °C with 5% CO2 overnight. […] On the day after cell seeding, 5 µL of the 10× compound stock solution was added to each cell culture well. […] In addition to the compound-treated wells described above, cell-containing DMSO control wells (with 5 µL of the complete medium containing 1% DMSO added to each well) and cell-free medium control wells (containing 50 µL of the complete medium with 2% FBS) were also set. The culture plate was incubated in an incubator at 37 °C with 5% CO2 for another 5 days, and then 30 µL of CellTiter-Glo working solution was added to each well. The mixture was well mixed, incubated for 30 min, left to stand at room temperature for 30 min, and then transferred to a white-bottomed, opaque 384-well assay plate at 40 µL/well. […] Using an XLfit software, the IR (%) values were plotted against the logarithm of the compound concentrations, and the dose-response curves were fitted using the four-parameter method to calculate the IC50 values.

H441 p-ERK = experiment: Cell p-ERK assay (HTRF), NCI-H441 cells; conditions: NCI-H441 cells (KRAS G12V), 3 h incubation
Description: (§2) The cells were digested with trypsin (containing EDTA), collected in their corresponding complete media, and counted. The density of the cell suspensions was adjusted with their corresponding complete media, and 10000 AsPC-1 cells or 20000 NCI-H441 cells per well were seeded into a 96-well cell culture plate, with the volume of the medium in each well being 80 µL. The cell culture plate was incubated in an incubator at 37 °C with 5% CO2 overnight. […] On the day after cell seeding, 20 µL of the 5× compound stock solution was added to each cell culture well. […] In addition to the compound-treated wells described above, cell-containing DMSO control wells were also set. A complete medium containing 0.5% DMSO was added at 20 µL/well. After the mixture was well mixed, the culture plate was incubated in the incubator at 37 °C with 5% CO2 for another 3 h. The medium was then removed from the culture wells, and 50 µL of cell lysis buffer (from Advance ERK phospho-T202/Y204 kit) was added to each well. The mixture was well mixed and incubated for 30 min. Then, 16 µL of the mixture was transferred to a white-bottomed, opaque 96-well assay plate, and separately, 16 µL of cell lysis buffer was added to additional wells (serving as blank wells) in the assay plate. After the transfer was completed, 4 µL of p-ERK HTRF antibody mixture (from Advance ERK phospho-T202/Y204 kit) was added to each well of the assay plate, followed by a 4-hour incubation. […] Using an XLfit software, the IR (%) values were plotted against the logarithm of the compound concentrations, and the dose-response curves were fitted using the four-parameter method to calculate the IC50 values.

AsPC-1 p-ERK = experiment: Cell p-ERK assay (HTRF), AsPC-1 cells
Description: as §2

AsPC-1 cells = experiment: 3D cell proliferation assay (CellTiter Glo-3D), AsPC-1
Description: as §1

[1] = AsPC-1 cells (KRAS G12D), 3 h incubation, read-out: AsPC-1 p-ERK IC50
[2] = AsPC-1 cells (KRAS G12D), 3D, 2% FBS, 5 days, read-out: AsPC-1 AP IC50
[3] = Homo sapiens, ASPC1, 3 h, read-out: AsPC-1 p-ERK IC50(nM)
[4] = Homo sapiens, ASPC1, 120 h, read-out: AsPC-1 AP IC50(nM)

Row | IC50 (NCI-H441 cells) [nM] | IC50 (H441 p-ERK) [nM] | IC50 (AsPC-1 p-ERK; [1]) [nM] | IC50 (AsPC-1 cells; [2]) [nM] | IC50 (NCI-H441 cells; Homo sapiens, 120 h) [nM] | IC50 (H441 p-ERK; Homo sapiens) [nM] | IC50 (AsPC-1 p-ERK; [3]) [nM] | IC50 (AsPC-1 cells; [4]) [nM] | Compound | IC50 (AsPC-1 p-ERK; Homo sapiens, ASPC1, AsPC-1 cells (KRAS G12D), 3 h incubation, read-out: AsPC-1 p-ERK IC50) [nM] | IC50 (AsPC-1 cells; Homo sapiens, ASPC1, 120 h, AsPC-1 cells (KRAS G12D), 3D, 2% FBS, 5 days, read-out: AsPC-1 AP IC50) [nM]
1 | 1.82 | 0.81 | 0.86 | 1.61 |  |  |  |  | (6^3S,4S,Z)-(Sa)-1^2-(5-(3-(1,4-oxazepan-4-yl)prop-1-yn-1-yl)-2-((S)-1-methoxyethyl)pyridin-3-yl)-1^1-ethyl-10,10-dimethyl-4-((5-ethyl-5-methyl-4,5-dihydroisoxazol-3-yl)amino)-6^1,6^2,6^3,6^4,6^5,6^6-hexahydro-1^1H-8-oxa-2(4,2)-thiazola-1(5,3)-indola-6(1,3)-pyridazinacycloundecaphane-5,7-dione [Compound Z173-2] |  | 
2 |  |  |  |  | 0.09 | 0.42 | 0.64 | 0.12 | CCn1c(-c2cc(C#CCN3CCN(C)CC3)cnc2[C@H](C)OC)c2c3cc(ccc31)-c1csc(n1)C[C@H](NC(=O)[C@H]1[C@@H]3COC[C@@H]31)C(=O)N1CCC[C@H](N1)C(=O)OCC(C)(C)C2 (atropisomer, axis not shown; (Ra)) [Compound Z83, (1R,5S,6r)-N-((6^3S,4S,Z)-1^1-ethyl-(Ra)-1^2-(2-((S)-1-methoxyethyl)-5-(3-(4-methylpiperazin-1-yl)prop-1-yn-1-yl)pyridin-3-yl)-10,10-dimethyl-5,7-dioxo-6^1,6^2,6^3,6^4,6^5,6^6-hexahydro-1^1H-8-oxa-2(4,2)-thiazola-1(5,3)-indola-6(1,3)-pyridazinacycloundecaphane-4-yl)-3-oxabicyclo[3.1.0]hexane-6-carboxamide] |  | 
3 |  |  |  |  | 0.28 | 0.18 | 0.27 | 0.42 | CCn1c(-c2cc(C#CCN3CCC(N)(C#N)CC3)cnc2[C@H](C)OC)c2c3cc(ccc31)-c1csc(n1)C[C@H](NC(=O)[C@H]1[C@@H]3COC[C@@H]31)C(=O)N1CCC[C@H](N1)C(=O)OCC(C)(C)C2 (atropisomer, axis not shown; (Ra)) [Compound Z51, (1R,5S,6r)-N-((6^3S,4S,Z)-(Ra)-1^2-(5-(3-(4-amino-4-cyanopiperidin-1-yl)prop-1-yn-1-yl)-2-((S)-1-methoxyethyl)-pyridin-3-yl)-1^1-ethyl-10,10-dimethyl-5,7-dioxo-6^1,6^2,6^3,6^4,6^5,6^6-hexahydro-11H-8-oxa-2(4,2)-thiazola-1(5,3)-indola-6(1,3)-pyridazinacycloundecaphane-4-yl)-3-oxabicyclo[3.1.0]hexane-6-carboxamide] |  | 
4 |  |  |  |  | 0.11 | 0.15 | 0.07 | 0.07 | CCn1c(-c2cc(C#CCN3CCC(C#N)(CO)CC3)cnc2[C@H](C)OC)c2c3cc(ccc31)-c1csc(n1)C[C@H](NC(=O)[C@H]1[C@@H]3COC[C@@H]31)C(=O)N1CCC[C@H](N1)C(=O)OCC(C)(C)C2 (atropisomer, axis not shown; (Ra)) [Compound Z30, (1R,5S,6r)-N-((6^3S,4S,Z)-(Ra)-1^2-(5-(3-(4-cyano-4-(hydroxymethyl)piperidin-1-yl)prop-1-yn-1-yl)-2-((S)-1-methoxyethyl)pyridin-3-yl)-11-ethyl-10,10-dimethyl-5,7-dioxo-6^1,6^2,6^3,6^4,6^5,6^6-hexahydro-1^1H-8-oxa-2(4,2)-thiazola-1(5,3)-indola-6(1,3)-pyridazinacycloundecaphane-4-yl)-3-oxabicyclo[3.1.0]hexane-6-carboxamide] |  | 
5 |  |  |  |  | 0.35 | 0.22 | 0.26 | 0.46 | CCn1c(-c2cc(C#CCN3CCS(=O)(=O)CC3)cnc2[C@H](C)OC)c2c3cc(ccc31)-c1csc(n1)C[C@H](NC(=O)[C@@H](NC)C1CCC1)C(=O)N1CCC[C@H](N1)C(=O)OCC(C)(C)C2 (atropisomer, axis not shown; (Ra)) [Compound Z17, (2S)-2-methylamino-2-cyclobutyl-N-((6^3S,4S,Z)-(Ra)-1^2-(5-(3-(1,1-dioxidothiomorpholino)prop-1-yn-1-yl)-2-((S)-1-methoxyethyl)pyridin-3-yl)-1^1-ethyl-10,10-dimethyl-5,7-dioxo-6^1,6^2,6^3,6^4,6^5,6^6-hexahydro-1^1H-8-oxa-2(4,2)-thiazola-1(5,3)-indola-6(1,3)-pyridazinacycloundecaphane-4-yl)acetamide] |  | 
6 |  |  |  |  | 0.35 | 0.45 | 0.42 | 0.56 | CCn1c(-c2cc(C#CCN3CCS(=O)(=O)CC3)cnc2[C@H](C)OC)c2c3cc(ccc31)-c1csc(n1)C[C@H](NC(=O)[C@H]1[C@H](C)[C@@H]1CO)C(=O)N1CCC[C@H](N1)C(=O)OCC(C)(C)C2 (atropisomer, axis not shown; (Ra)) [Compound Z7-2, (1S,2S,3R)-N-((6^3S,4S,Z)-(Ra)-1^2-(5-(3-(1,1-dioxidothiomorpholino)prop-1-yn-1-yl)-2-((S)-1-methoxyethyl)pyridin-3-yl)-1^1-ethyl-10,10-dimethyl-5,7-dioxo-6^1,6^2,6^3,6^4,6^5,6^6-hexahydro-1^1H-8-oxa-2(4,2)-thiazola-1(5,3)-indola-6(1,3)-pyridazinacycloundecaphane-4-yl)-2-(hydroxymethyl)-3-methylcyclopropane-1-carboxamide] |  | 
7 | 0.28 | 0.72 | 0.59 | 0.18 |  |  |  |  | CO[C@@H](C)c1ncc(C#CCN2CCS(=O)(=O)CC2)cc1-c1c2c3cc(ccc3n1CC(C)O)-c1csc(n1)C[C@H](NC(=O)[C@H]1[C@H](C)[C@@H]1C)C(=O)N1CCC[C@H](N1)C(=O)OCC(C)(C)C2 (atropisomer, axis not shown; (Ra)) [Compound Z3, (1r,2R,3S)-N-((6^3S,4S,Z)-(Ra)-1^2-(5-(3-(1,1-dioxidothiomorpholino)prop-1-yn-1-yl)-2-((S)-1-methoxyethyl)pyridin-3-yl)-1^1-(2-hydroxypropyl)-10,10-dimethyl-5,7-dioxo-6,6',6',6^46^5,6^6-hexahydro-1^1H-8-oxa-2(4,2)-thiazola-1(5,3)-indola-6(1,3)-pyridazinacycloundecaphane-4-yl)-2,3-dimethylcyclopropane-1-carboxamide] |  | 
8 |  |  |  |  | 0.44 | 0.13 | 0.24 | 0.41 | CCn1c(-c2cc(C#CCN3CCCN(C(=O)CO)CC3)cnc2[C@H](C)OC)c2c3cc(ccc31)-c1csc(n1)C[C@H](NC(=O)[C@H]1[C@@H]3COC[C@@H]31)C(=O)N1CCC[C@H](N1)C(=O)OCC(C)(C)C2 (atropisomer, axis not shown; (Ra)) [Compound Z19] |  | 

Row | Compound | IC50 (NCI-H441 cells) [nM] | IC50 (H441 p-ERK) [nM] | IC50 (AsPC-1 p-ERK; [1]) [nM] | IC50 (AsPC-1 cells; [2]) [nM] | IC50 (NCI-H441 cells; Homo sapiens, 120 h) [nM] | IC50 (H441 p-ERK; Homo sapiens) [nM] | IC50 (AsPC-1 p-ERK; [3]) [nM] | IC50 (AsPC-1 cells; [4]) [nM] | IC50 (AsPC-1 p-ERK; Homo sapiens, ASPC1, AsPC-1 cells (KRAS G12D), 3 h incubation, read-out: AsPC-1 p-ERK IC50) [nM] | IC50 (AsPC-1 cells; Homo sapiens, ASPC1, 120 h, AsPC-1 cells (KRAS G12D), 3D, 2% FBS, 5 days, read-out: AsPC-1 AP IC50) [nM]
9 | CCn1c(-c2cc(C#CCN3CCC(C(=O)NCCO)CC3)cnc2[C@H](C)OC)c2c3cc(ccc31)-c1csc(n1)C[C@H](NC(=O)[C@H]1[C@H](C)[C@@H]1C)C(=O)N1CCC[C@H](N1)C(=O)OCC(C)(C)C2 (atropisomer, axis not shown; (Ra)) [Compound Z12] |  |  |  |  | 0.21 | 0.15 |  |  | 0.36 | 0.44
